Data from PubChem BioAssay (NCI).
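Test compounds were applied to cells in 96-well plates for 48 hours at 5 doses. GI50 = concentration required for 50% inhibition of growth. TGI: total growth inhibition.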

Key:
Assay in all cases: NCI anticancer screen, dose series, 48 h
[1] = system: NCI-H23 lung
[2] = system: MALME-3M melanoma
[3] = system: HCT-116 colon
[4] = system: CAKI-1 renal
[5] = system: MOLT-4 leukemia
[6] = system: MCF7 breast
[7] = system: SF-268 CNS
[8] = system: SF-295 CNS
[9] = system: EKVX NSCLC
[10] = system: SN12C renal
[11] = system: COLO 205 colon
[12] = system: KM12 colon
[13] = system: NCI-H226 lung
[14] = system: PC-3 prostate
[15] = system: UACC-62 melanoma
[16] = system: HOP-92 NSCLC
[17] = system: ACHN renal
[18] = system: RXF 393 renal
[19] = system: A498 renal
[20] = system: SF-539 CNS
[21] = system: HCC-2998 colon
[22] = system: U251 CNS
[23] = system: HL-60(TB) leukemia
[24] = system: SK-MEL-28 melanoma
[25] = system: CCRF-CEM leukemia
[26] = system: 786-0 renal
[27] = system: DU-145 prostate
[28] = system: SNB-75 CNS
[29] = system: HCT-15 colon
[30] = system: OVCAR-4 ovarian
[31] = system: OVCAR-3 ovarian
[32] = system: HS 578T breast
[33] = system: K-562 leukemia
[34] = system: M14 melanoma
[35] = system: SW-620 colon
[36] = system: MDA-MB-468 breast
[37] = system: OVCAR-8 ovarian
[38] = system: NCI-H460 lung
[39] = system: RPMI-8226 leukemia
[40] = system: OVCAR-5 ovarian
[41] = system: HOP-62 NSCLC
[42] = system: SK-OV-3 ovarian
[43] = system: LOX IMVI melanoma
[44] = system: BT-549 breast
[45] = system: IGROV1 ovarian
[46] = system: UACC-257 melanoma
[47] = system: SK-MEL-5 melanoma
[48] = system: NCI-H522 lung
[49] = system: MDA-MB-435
[50] = system: HT29 colon
[51] = system: A549 NSCLC
[52] = system: SK-MEL-2 melanoma
[53] = system: TK-10 renal
[54] = system: T-47D breast
[55] = system: MDA-MB-231 breast
[56] = system: UO-31 renal
[57] = system: SR leukemia
[58] = system: SNB-19 CNS

C=C1CC[C@@H]2[C@]3(C)COC(c4cn[nH]c4-c4cccc(Cl)c4)O[C@@H]3CC[C@@]2(C)[C@@H]1C/C=C1/C(=O)OCC1O (stereo partly drawn)
GI50 [1]: 4.36 µM
TGI [1]: 15.9 µM
GI50 [2]: 1.84 µM
TGI [2]: 4.26 µM
GI50 [3]: 1.84 µM
TGI [3]: 3.93 µM
GI50 [4]: 4 µM
TGI [4]: 14.6 µM
GI50 [5]: 3.83 µM
TGI [5]: 18.2 µM
GI50 [6]: 2.06 µM
TGI [6]: 9.16 µM
GI50 [7]: 17.3 µM
TGI [7]: 41.4 µM
GI50 [8]: 4.27 µM
TGI [8]: 16.1 µM
GI50 [9]: 3.68 µM
TGI [9]: 13.9 µM
GI50 [10]: 2.94 µM
TGI [10]: 10.5 µM
GI50 [11]: 4.85 µM
TGI [11]: 19.5 µM
GI50 [12]: 3.29 µM
TGI [12]: 13.1 µM
GI50 [13]: 1.66 µM
TGI [13]: 3.21 µM
GI50 [14]: 4.08 µM
TGI [14]: 30.7 µM
GI50 [15]: 1.69 µM
TGI [15]: 3.62 µM
GI50 [16]: 4.29 µM
TGI [16]: 22.3 µM
GI50 [17]: 2.47 µM
TGI [17]: 6.95 µM
GI50 [18]: 1.73 µM
TGI [18]: 3.24 µM
GI50 [19]: 18.5 µM
TGI [19]: 32.6 µM
GI50 [20]: 1.77 µM
TGI [20]: 3.36 µM
GI50 [21]: 3.49 µM
TGI [21]: 11.5 µM
GI50 [22]: 2.15 µM
TGI [22]: 5.29 µM
GI50 [23]: 2.91 µM
TGI [23]: 16.3 µM
GI50 [24]: 1.98 µM
TGI [24]: 4.05 µM
GI50 [25]: 2.7 µM
TGI [25]: 11.4 µM
GI50 [26]: 3.36 µM
TGI [26]: 11.7 µM
GI50 [27]: 5.01 µM
TGI [27]: 19.5 µM
GI50 [28]: 2.41 µM
TGI [28]: 12.3 µM
GI50 [29]: 1.79 µM
TGI [29]: 3.81 µM
GI50 [30]: 4.4 µM
TGI [30]: 45.7 µM
GI50 [31]: 1.93 µM
TGI [31]: 3.77 µM
GI50 [32]: 9.04 µM
TGI [32]: 62.7 µM
GI50 [33]: 2.41 µM
TGI [33]: 10.5 µM
GI50 [34]: 2.19 µM
TGI [34]: 5.88 µM
GI50 [35]: 2.35 µM
TGI [35]: 5.96 µM
GI50 [36]: 1.88 µM
TGI [36]: 4.97 µM
GI50 [37]: 2.39 µM
TGI [37]: 7.7 µM
GI50 [38]: 8.87 µM
TGI [38]: 25.6 µM
GI50 [39]: 2.25 µM
TGI [39]: 7.02 µM
GI50 [40]: 3.63 µM
TGI [40]: 14 µM
GI50 [41]: 15.3 µM
TGI [41]: 32 µM
GI50 [42]: 16 µM
TGI [42]: 35.1 µM
GI50 [43]: 1.44 µM
TGI [43]: 2.83 µM
GI50 [44]: 2.36 µM
TGI [44]: 6.03 µM
GI50 [45]: 4.14 µM
TGI [45]: 15.8 µM
GI50 [46]: 11.2 µM
TGI [46]: 27 µM
GI50 [47]: 2.27 µM
TGI [47]: 5.37 µM
GI50 [48]: 1.75 µM
TGI [48]: 3.59 µM
GI50 [49]: 2.47 µM
TGI [49]: 7.62 µM
GI50 [50]: 2.7 µM
TGI [50]: 6.8 µM
GI50 [51]: 9.73 µM
TGI [51]: 30.4 µM
GI50 [52]: 2.71 µM
TGI [52]: 8.53 µM
GI50 [53]: 12.4 µM
TGI [53]: 25.7 µM

CN(C)c1ccnc(CNCCSC2(c3ccccc3)c3ccccc3C=Cc3ccccc32)c1
GI50 [1]: 2.57 µM
TGI [1]: 7.46 µM
GI50 [2]: 1.54 µM
TGI [2]: 3.16 µM
GI50 [3]: 0.526 µM
TGI [3]: 2.1 µM
GI50 [4]: 2.29 µM
TGI [4]: 12.3 µM
GI50 [5]: 2.49 µM
TGI [5]: 12.4 µM
GI50 [6]: 0.419 µM
TGI [6]: 2.39 µM
GI50 [7]: 1.86 µM
TGI [7]: 7.62 µM
GI50 [8]: 1.8 µM
TGI [8]: 5.18 µM
GI50 [9]: 2.44 µM
TGI [9]: 13.9 µM
GI50 [10]: 1.39 µM
TGI [10]: 6.53 µM
GI50 [11]: 1.61 µM
TGI [11]: 3.11 µM
GI50 [12]: 1.44 µM
TGI [12]: 3.24 µM
GI50 [13]: 2.46 µM
TGI [13]: 8.8 µM
GI50 [54]: 2.48 µM
TGI [54]: 9.26 µM
GI50 [14]: 1.31 µM
TGI [14]: 6.91 µM
GI50 [15]: 2.17 µM
TGI [15]: 5.39 µM
GI50 [16]: 1.25 µM
TGI [16]: 5.18 µM
GI50 [17]: 1.44 µM
TGI [17]: 12.2 µM
GI50 [18]: 1.25 µM
TGI [18]: 4.5 µM
GI50 [19]: 9.97 µM
TGI [19]: 25.3 µM
GI50 [20]: 1.47 µM
TGI [20]: 2.83 µM
GI50 [21]: 1.41 µM
TGI [21]: 2.98 µM
GI50 [22]: 0.38 µM
TGI [22]: 1.6 µM
GI50 [24]: 2.02 µM
TGI [24]: 4.11 µM
GI50 [55]: 1.46 µM
TGI [55]: 3.63 µM
GI50 [25]: 0.681 µM
TGI [25]: 11.9 µM
GI50 [26]: 1.62 µM
TGI [26]: 3.98 µM
GI50 [27]: 2.85 µM
TGI [27]: 8.11 µM
GI50 [28]: 1.56 µM
TGI [28]: 6.29 µM
GI50 [29]: 0.52 µM
TGI [29]: 11.4 µM
GI50 [30]: 3.56 µM
TGI [30]: 16 µM
GI50 [31]: 1.73 µM
TGI [31]: 4.87 µM
GI50 [32]: 1.99 µM
TGI [32]: 5.92 µM
GI50 [33]: 0.38 µM
TGI [33]: > 100 µM
GI50 [56]: 2.16 µM
TGI [56]: 11.4 µM
GI50 [34]: 0.71 µM
TGI [34]: 2.5 µM
GI50 [35]: 0.579 µM
TGI [35]: 2.26 µM
GI50 [57]: 0.798 µM
TGI [57]: 5.04 µM
GI50 [36]: 0.46 µM
TGI [36]: 2.06 µM
GI50 [38]: 1.61 µM
TGI [38]: 3.13 µM
GI50 [39]: 1.62 µM
TGI [39]: 5.44 µM
GI50 [40]: 2.45 µM
TGI [40]: 7.64 µM
GI50 [41]: 2.16 µM
TGI [41]: 8.1 µM
GI50 [42]: 2.8 µM
TGI [42]: 9.04 µM
GI50 [43]: 1.43 µM
TGI [43]: 2.77 µM
GI50 [44]: 1.91 µM
TGI [44]: 5 µM
GI50 [45]: 2.94 µM
TGI [45]: 17.1 µM
GI50 [46]: 1.79 µM
TGI [46]: 4.18 µM
GI50 [47]: 1.46 µM
TGI [47]: 2.78 µM
GI50 [58]: 3.75 µM
TGI [58]: 15.2 µM
GI50 [48]: 1.4 µM
TGI [48]: 3.36 µM
GI50 [49]: 0.215 µM
TGI [49]: 0.495 µM
GI50 [50]: 1.69 µM
TGI [50]: 3.92 µM
GI50 [51]: 0.556 µM
TGI [51]: 5.83 µM
GI50 [52]: 2.2 µM
TGI [52]: 4.89 µM
GI50 [53]: 3.09 µM
TGI [53]: 14.8 µM
